This note sets out measurements from PubChem BioAssay AID2060618 (Molecular Pharmacology Branch, DTP, NCI, 2025).

Values joined by “and” are separate entries in the source; they are usually repeats but may differ in a detail not shown here. Equal entries are not always repeated.

For this assay, the system named is 454973-116-R2-J3-PDC spheroids, percent test/control viability. The assay can be described thus: Anticancer human tumor 454973-116-R2-J3-PDC patient-derived pancreatic carcinoma cell line growth inhibition [CLK]. The conditions noted are these: spheroids with HUVEC and MSC; for viability, T/C: stronger effect = lower value. An excerpt: A high-throughput screen of multi-cell type tumor spheroids was designed to identify active combinations of […] and targeted small molecules. Complex spheroids include a stromal component modeled by human endothelial cells (HUVEC) and fibroblasts modeled by human mesenchymal stem cells (MSCs). The concentration ranges selected for each drug and investigational agent were based upon clinically achievable concentrations if the clinical Cmax of the agent was known.
Compounds. The drugs and investigational agents: cirtuvivint (SM08502; NSC835563), CC-671 (NSC850746), vemurafenib (NSC761431), tapotoclax (NSC804041), sotorasib (NSC818433), adagrasib (NSC831453), MRTX-1133 (NSC836407), BAY2416964 (NSC825713), copanlisib (NSC816437), inavolisib (NSC800729), abemaciclib (NSC768073), osimertinib (NSC779217), entinostat (NSC756642), eltanexor (KPT-8602, NSC794443), venetoclax (NSC766270), ceralasertib (NSC777638), bortezomib (NSC756655), olaparib (NSC753686), talazoparib (NSC767125), alisertib (NSC759677), peposertib (NSC802822), gemcitabine (NSC613327), 5-fluorouracil (NSC19893), SN-38 (NSC673596), oxaliplatin (NSC266046), paclitaxel (NSC125973), and doxorubicin (NSC123127), were obtained from the National Cancer Institute (NCI) Developmental Therapeutics Program Chemical Repository. The FDA-approved anticancer drug set is available from the Developmental Therapeutics Program at https://dtp.cancer.gov/organization/dscb/obtaining/available plates.htm. […] The stock solutions were prepared in dimethyl sulfoxide (DMSO, Sigma-Aldrich, St. Louis, MO, cat. D2650), except for the platinum complexes which were prepared in saline (Quality Biological, Gaithersburg, MD, cat. 114-055-101), at 800-fold the tested concentration and stored at -70 degrees C prior to their use. All drugs and investigational agents were tested over a range starting from a high concentration at or near the clinical Cmax and decreasing in half-log increments. If the clinical Cmax for an agent had not been determined, the highest concentration tested was 10 microM.
Cell Culture. All cells were maintained in an incubator at 37 degrees C and 5% CO2 with 95% humidity. The PDC lines were cultured according to standard operating procedures established by the NCI PDMR. Briefly, all PDCs were thawed and cultured in Matrigel-coated flasks prepared with a working solution of 1X Ham's F-12 nutrient mix, without supplementation (Invitrogen, Waltham, MA, cat. 11765054), 100 U/mL penicillin-streptomycin (Invitrogen, cat. 15140122), and 2.5% Matrigel (Corning Inc., Corning, NY, cat. 354248) for the first three passages. The 947758-054-R-J2-PDC line was cultured in 6B/Colon 1A media, which includes advanced DMEM/F-12 (Thermo Fisher Scientific, cat. 12634028), 10 mM HEPES (Thermo Fisher Scientific, cat. 15630080), 1X GlutaMAX supplement (Thermo Fisher Scientific, cat. 35050061), 0.1 mg/mL primocin (InvivoGen, cat. ant-pm-2), 10% defined fetal bovine serum, heat inactivated (HyClone Laboratories Inc., cat. SH30070.03HI), 1.25 mM N-Acetyl-L-cysteine (Sigma-Aldrich, cat. A9165), 10 mM nicotinamide (Sigma-Aldrich, cat. N0636), 1X B-27 supplement (Thermo Fisher Scientific, cat. 17504044), 1X N-2 supplement (Thermo Fisher Scientific, cat. 17502048), and 10 microM Y-27632 dihydrochloride (Tocris Bioscience, cat. 1254). The 876862-298-R-J1-PDC was cultured in 6E media, which includes all 6B/Colon 1A media components plus 50% L-WRN conditioned media (ATCC, cat. CRL-3276), 50 ng/mL recombinant human EGF recombinant protein (hEGF; Thermo Fisher Scientific, cat. PHG0311), 10 ng/mL recombinant human fibroblast growth factor 10 (hGFG-10; PeproTech, cat. 100-26), 1 ng/mL recombinant human fibroblast growth factor 2 (hFGF-2; PeproTech, cat. 100-18B), and 1 µM prostaglandin E2 (PGE2; Tocris, cat. 2296). The 227483-062-R1-J1-PDC line was cultured in Panc media, containing all 6E components except hFGF-2, with the addition of 500 nM SB-431542 (Selleckchem, cat. S1067) and 10 nM gastrin (Tocris, cat. 3006). […]
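Also: spheroids exposed to compounds for 7 days before readout.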

On to `C#Cc1c(F)ccc2cc(O)cc(-c3ncc4c(N5CC6CCC(C5)N6)nc(OCC56CCCN5CC(F)C6)nc4c3F)c12` (stereo not given), for which the viability, T/C was 57% and 54.6% (compound 0.0316 µM); 43.1% and 39.1% (compound 0.1 µM); 33.8% and 39.8% (compound 0.316 µM); 29.4% and 31.3% (compound 1 µM); 30.1% and 29.4% (compound 3.16 µM); 22.2% and 18.5% (compound 10 µM). The IC50 (curve of compound) was 55.8 nM and 43.5 nM.

On to `C=C(F)C(=O)N1CCN(c2nc(OCC3CCCN3C)nc3c2CCN(c2cccc4cccc(Cl)c24)C3)CC1CC#N` (stereo not given), for which the viability, T/C (compound 0.0316 µM) is 105% and 106%; the viability, T/C (compound 0.1 µM) was 102% and 107%; the viability, T/C (compound 0.316 µM) is 110% and 114%; the viability, T/C (compound 1 µM) was 93.8% and 109%; the viability, T/C (compound 3.16 µM) is 104% and 105%; the viability, T/C (compound 10 µM) is 1.39% and 0.39%. Besides, where the note is “curve of compound”, the IC50 was 5770 nM and 5780 nM.

`C=CC(=O)N1CCN(c2nc(=O)n(-c3c(C)ccnc3C(C)C)c3nc(-c4c(O)cccc4F)c(F)cc23)C(C)C1` (stereo not given): the viability, T/C (compound 0.0316 µM) was 107% and 99.3%; the viability, T/C (compound 0.1 µM) was 107% and 106%; the viability, T/C (compound 0.316 µM) is 107% and 105%; the viability, T/C (compound 1 µM) was 110% and 97.4%; the viability, T/C (compound 3.16 µM) is 124% and 116%; the viability, T/C (compound 10 µM) was 124% and 118%. The IC50 (curve of compound) was more than 10000 nM.

Turning to `C=CC(=O)Nc1cc(Nc2nccc(-c3cn(C)c4ccccc34)n2)c(OC)cc1N(C)CCN(C)C`, the viability, T/C (compound 0.000949 µM) was 104% and 111%; the viability, T/C (compound 0.003 µM) was 107% and 98.9%; the viability, T/C (compound 0.00949 µM) was 97.8% and 95%; the viability, T/C (compound 0.03 µM) is 105% and 108%; the viability, T/C (compound 0.0949 µM) is 115% and 111%; the viability, T/C (compound 0.3 µM) is 109% and 100%. The IC50 (curve of compound) was more than 300 nM.

With `CC(C)CC(NC(=O)C(Cc1ccccc1)NC(=O)c1cnccn1)B(O)O` (stereo not given), the viability, T/C (compound 0.000949 µM) is 106% and 104%; the viability, T/C (compound 0.003 µM) is 47.9% and 34.1%; the viability, T/C (compound 0.00949 µM) was 0.32% and 0.38%; the viability, T/C (compound 0.03 µM) was 0.21% and 1.51%; the viability, T/C (compound 0.0949 µM) was 0.12% and 2.95%; the viability, T/C (compound 0.3 µM) was 0.11% and 1.42%. The IC50 (curve of compound) was 2.88 nM and 2.31 nM.

On to `CC(CO)NC(=O)c1cc(-c2ccc(Cl)cc2)nn(-c2cnn(C)c2)c1=O` (stereo not given), for which the viability, T/C runs as follows: (compound 0.0316 µM) 112% and 99.4%; (compound 0.1 µM) 106% and 92.4%; (compound 0.316 µM) 114% and 111%; (compound 1 µM) 99.3% and 107%; (compound 3.16 µM) 103% and 109%; (compound 10 µM) 71.3% and 79%. For the same compound, the IC50 (curve of compound) is more than 10000 nM.

For the compound `CCCS(=O)(=O)Nc1ccc(F)c(C(=O)c2c[nH]c3ncc(-c4ccc(Cl)cc4)cc23)c1F`, the viability, T/C reads like this: (compound 0.0316 µM) 99.6% and 110%; (compound 0.1 µM) 103% and 101%; (compound 0.316 µM) 112% and 105%; (compound 1 µM) 102% and 103%; (compound 3.16 µM) 108% and 101%; (compound 10 µM) 39.4% and 25.2%. In addition, the IC50 (curve of compound) was 8300 nM and 6870 nM.

For the compound `CCN1CCN(Cc2ccc(Nc3ncc(F)c(-c4cc(F)c5nc(C)n(C(C)C)c5c4)n3)nc2)CC1`, the viability, T/C (compound 0.00316 µM) is 95.9% and 106%; the viability, T/C (compound 0.01 µM) was 99.1% and 87.2%; the viability, T/C (compound 0.0316 µM) is 89.6% and 75.1%; the viability, T/C (compound 0.1 µM) was 75.3% and 70.8%; the viability, T/C (compound 0.316 µM) is 60.3% and 65%; the viability, T/C (compound 1 µM) was 62.7% and 64.3%. The 50% inhibitory concentration (IC50) (curve of compound) was more than 1000 nM.

For `CCc1c2c(nc3ccc(O)cc13)-c1cc3c(c(=O)n1C2)COC(=O)[C@]3(O)CC`, the viability, T/C by setting is: (compound 0.00316 µM) 39.9% and 31.5%; (compound 0.01 µM) 15.9% and 14.3%; (compound 0.0316 µM) 12% and 13%; (compound 0.1 µM) 6.22% and 7.38%; (compound 0.316 µM) 2.81% and 3.92%; (compound 1 µM) 1.02% and 3.21%. For the same compound, the IC50 (curve of compound) was less than 3.16 nM.

For the compound `CN1CCN(c2cc(C(=O)Nc3cc4cc(-c5cnn(C)c5)ccc4cn3)ccn2)CC1`, the viability, T/C runs as follows: (compound 0.0316 µM) 102% [middle of 12 runs]; (compound 0.1 µM) 81.8% [middle of 12 runs]; (compound 0.316 µM) 2.31% [middle of 11 runs]; (compound 1 µM) 0.41% [middle of 10 runs]; (compound 3.16 µM) 0.23% [middle of 9 runs]; (compound 10 µM) 0.25% [middle of 10 runs]. The IC50 (compound alone, run of 09/18/2023) is 159 nM [middle of 9 runs].

`CNC(=O)c1ccc(Nc2nc(OC3CCCC3)c3c(-c4ccc5nc(C)oc5c4)c[nH]c3n2)c(OC)c1`: the viability, T/C by setting is: (compound 0.0316 µM) 106% [middle of 12 runs]; (compound 0.1 µM) 104% [middle of 12 runs]; (compound 0.316 µM) 47.8% [middle of 12 runs]; (compound 1 µM) 30.7% [middle of 12 runs]; (compound 3.16 µM) 26.1% [middle of 12 runs]; (compound 10 µM) 28.5% [middle of 11 runs]. Also, the IC50 (compound alone, run of 09/19/2023) was 302 nM [middle of 12 runs].

In the case of `COC1C=CCC(C)C(C)S(=O)(=O)NC(=O)c2ccc3c(c2)N(CC2CCC21)CC1(CCCc2cc(Cl)ccc21)CO3` (stereo not given), the viability, T/C reads like this: (compound 0.0316 µM) 109% and 95.4%; (compound 0.1 µM) 103% and 97.3%; (compound 0.316 µM) 95.6% and 90.4%; (compound 1 µM) 94.7%; (compound 3.16 µM) 99.9% and 80.9%; (compound 10 µM) 8.41% and 5.61%. Under “curve of compound”, the IC50 is 5920 nM and 5070 nM.

As to `COc1c(OCCCN2CCOCC2)ccc2c3n(c(=NC(=O)c4cnc(N)nc4)nc12)CCN3`, the viability, T/C (compound 0.00316 µM) was 97.1% and 109%; the viability, T/C (compound 0.01 µM) is 98.4% and 90.9%; the viability, T/C (compound 0.0316 µM) is 99.2% and 75.2%; the viability, T/C (compound 0.1 µM) is 44% and 39%; the viability, T/C (compound 0.316 µM) was 23.6% and 20.3%; the viability, T/C (compound 1 µM) is 8.06% and 7.21%. The IC50 (curve of compound) was 88.4 nM and 72.4 nM.

Regarding `Cn1ncnc1[C@H]1c2n[nH]c(=O)c3cc(F)cc(c23)N[C@@H]1c1ccc(F)cc1`, the viability, T/C is 100% and 113% (compound 0.000316 µM); 96.3% and 104% (compound 0.001 µM); 105% and 102% (compound 0.00316 µM); 93.3% and 96.9% (compound 0.01 µM); 93.7% and 87.6% (compound 0.0316 µM); 91.9% and 89.7% (compound 0.1 µM). The IC50 (curve of compound) was more than 100 nM.

As to `NC(=O)C(=Cn1cnc(-c2cc(C(F)(F)F)cc(C(F)(F)F)c2)n1)c1cncnc1`, the viability, T/C runs as follows: (compound 0.00949 µM) 97.3% and 100%; (compound 0.03 µM) 97% and 95.2%; (compound 0.0949 µM) 83.1% and 78.2%; (compound 0.3 µM) 63.3% and 48.4%; (compound 0.949 µM) 42.4% and 35.4%; (compound 3 µM) 21.7% and 10.8%. For the same compound, the IC50 (curve of compound) is 614 nM and 362 nM.

For orientation: viability, T/C means the ratio of treated to control. Usually IC50 stands for the concentration at which inhibition is half-maximal.
